In PubChem BioAssay (NCI):
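Cells were grown in 96-well plates and exposed to each compound for 48 hours at five concentrations; endpoints were interpolated linearly between bracketing concentrations, or set to the highest concentration if not reached. GI50 = concentration required for 50% inhibition of growth. The concentration for full growth arrest is given as TGI.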

Key:
Assay in all cases: NCI-60 cell line screen, 48 h
SF-539 CNS = tested on: SF-539 CNS
NCI-H522 lung = tested on: NCI-H522 lung
OVCAR-5 ovarian = tested on: OVCAR-5 ovarian
COLO 205 colon = tested on: COLO 205 colon
HCT-15 colon = tested on: HCT-15 colon
T-47D breast = tested on: T-47D breast
HS 578T breast = tested on: HS 578T breast
HCC-2998 colon = tested on: HCC-2998 colon
MALME-3M melanoma = tested on: MALME-3M melanoma
A549 NSCLC = tested on: A549 NSCLC
KM12 colon = tested on: KM12 colon
SK-MEL-28 melanoma = tested on: SK-MEL-28 melanoma
NCI-H23 lung = tested on: NCI-H23 lung
NCI-H460 lung = tested on: NCI-H460 lung
IGROV1 ovarian = tested on: IGROV1 ovarian
HL-60(TB) leukemia = tested on: HL-60(TB) leukemia
ACHN renal = tested on: ACHN renal
U251 CNS = tested on: U251 CNS
SNB-75 CNS = tested on: SNB-75 CNS
NCI-H226 lung = tested on: NCI-H226 lung
SN12C renal = tested on: SN12C renal
M14 melanoma = tested on: M14 melanoma
DU-145 prostate = tested on: DU-145 prostate
SF-295 CNS = tested on: SF-295 CNS
NCI/ADR-RES ovarian = tested on: NCI/ADR-RES ovarian
MDA-MB-231 breast = tested on: MDA-MB-231 breast
CAKI-1 renal = tested on: CAKI-1 renal
MDA-MB-435 = tested on: MDA-MB-435
UO-31 renal = tested on: UO-31 renal

## Cn1ccnc1C(=O)/C=C/c1ccc(C(=O)Nc2ccc(F)cc2)cc1
SF-539 CNS
  GI50: 851 nM
  TGI: 1790 nM
NCI-H522 lung
  GI50: 1170 nM
  TGI: 4700 nM
OVCAR-5 ovarian
  GI50: 1540 nM
  TGI: 26500 nM
COLO 205 colon
  GI50: 1470 nM
  TGI: 5420 nM
HCT-15 colon
  GI50: 274 nM
  TGI: 2500 nM
T-47D breast
  GI50: 1240 nM
  TGI: > 50000 nM
HS 578T breast
  GI50: 1660 nM
  TGI: > 50000 nM
HCC-2998 colon
  GI50: 915 nM
  TGI: 2000 nM
MALME-3M melanoma
  GI50: 3270 nM
  TGI: > 50000 nM
A549 NSCLC
  GI50: 1410 nM
  TGI: > 50000 nM
KM12 colon
  GI50: 481 nM
  TGI: 2000 nM
SK-MEL-28 melanoma
  GI50: 1800 nM
  TGI: 9650 nM
NCI-H23 lung
  GI50: 1300 nM
  TGI: 5360 nM
NCI-H460 lung
  GI50: 1060 nM
  TGI: 2660 nM
IGROV1 ovarian
  GI50: 1240 nM
  TGI: 4440 nM
HL-60(TB) leukemia
  GI50: 933 nM
  TGI: 3120 nM
ACHN renal
  GI50: 1010 nM
  TGI: 2110 nM
U251 CNS
  GI50: 747 nM
  TGI: 2710 nM
SNB-75 CNS
  GI50: 919 nM
  TGI: 16800 nM
NCI-H226 lung
  GI50: 1510 nM
  TGI: > 12400 nM
SN12C renal
  GI50: 1370 nM
  TGI: > 50000 nM
M14 melanoma
  GI50: 1160 nM
  TGI: 3810 nM
DU-145 prostate
  GI50: 1610 nM
  TGI: > 50000 nM
SF-295 CNS
  GI50: 1820 nM
  TGI: > 37100 nM
NCI/ADR-RES ovarian
  GI50: 1250 nM
  TGI: > 50000 nM
MDA-MB-231 breast
  GI50: 1710 nM
  TGI: > 50000 nM
CAKI-1 renal
  GI50: 1070 nM
  TGI: > 50000 nM
MDA-MB-435
  GI50: 1590 nM
  TGI: 11000 nM
UO-31 renal
  GI50: 814 nM
  TGI: 2690 nM
